Assay results published in ChEMBL document CHEMBL5303304, “EUbOPEN Chemogenomics Library - IncuCyte” (2023).

How the values were obtained:
Format in all cases: toxicity, cell-based
Fibroblast = assay: Incucyte cell viability with human fibroblast; settings: 10 µM, compound concentration 10 uM
HEK-293T = assay: Incucyte cell viability with HEK293T; settings: human, 10 µM, compound concentration 10 uM
U2OS = assay: Incucyte cell viability with U2OS; settings: human, 10 µM, compound concentration 10 uM
Note: unitless GR value; below 1 slowed growth and below 0 cell loss.

SMILES | Growth Rate (Fibroblast; 12 h, replicate number 1) | Growth Rate (Fibroblast; 18 h, replicate number 1) | Growth Rate (Fibroblast; 24 h, replicate number 1) | Growth Rate (Fibroblast; 24 h, replicate number 2) | Growth Rate (HEK-293T; 0 h, replicate number 1) | Growth Rate (HEK-293T; 0 h, replicate number 2) | Growth Rate (HEK-293T; 18 h, replicate number 1) | Growth Rate (HEK-293T; 24 h, replicate number 1) | Growth Rate (HEK-293T; 24 h, replicate number 2) | Growth Rate (U2OS; 0 h, replicate number 1) | Growth Rate (U2OS; 0 h, replicate number 2) | Growth Rate (U2OS; 6 h, replicate number 1) | Growth Rate (U2OS; 6 h, replicate number 2) | Growth Rate (U2OS; 12 h, replicate number 2) | Growth Rate (U2OS; 18 h, replicate number 1) | Growth Rate (U2OS; 18 h, replicate number 2) | Growth Rate (U2OS; 24 h, replicate number 1) | Growth Rate (U2OS; 24 h, replicate number 2) | Growth Rate (Fibroblast; 0 h, replicate number 1) | Growth Rate (Fibroblast; 0 h, replicate number 2) | other results
CCNC1=N[C@@H]2[C@@H](O)[C@H](O)[C@@H](CO)O[C@@H]2S1 | 0.91 | 0.83 | 0.92 | 0.99 | -0.01 | -0.15 | 0.78 | 0.86 | 0.89 | -0.37 | 0.47 | 0.53 | 0.45 | 0.79 | 0.91 | 0.81 | 0.95 | 0.74 | – | – | Growth Rate (Fibroblast; 6 h, replicate number 2): 0.18; Growth Rate (Fibroblast; 12 h, replicate number 2): 0.76; Growth Rate (Fibroblast; 18 h, replicate number 2): 0.8; Growth Rate (HEK-293T; 6 h, replicate number 2): 0.53; Growth Rate (HEK-293T; 12 h, replicate number 2): 0.93; Growth Rate (U2OS; 12 h, replicate number 1): 0.86
CC(C)(C)c1ccc2c(c1)CC[C@H]2NC(=O)Nc1cccc2[nH]ncc12 [ABT-102] | -0.95 | – | 0.79 | – | – | 1 | 0.39 | 0.22 | 0.48 | – | -0.93 | – | – | 0.84 | – | 0.91 | – | 0.9 | 0.1 | 0.41 | Growth Rate (HEK-293T; 6 h, replicate number 1): 0.75; Growth Rate (HEK-293T; 6 h, replicate number 2): 0.6; Growth Rate (HEK-293T; 12 h, replicate number 1): 0.26; Growth Rate (HEK-293T; 12 h, replicate number 2): 0.71; Growth Rate (HEK-293T; 18 h, replicate number 2): 0.54
Cc1ccc(-c2cn3nc(C(=O)NC4(c5ccc(F)cc5)CN(C)C4)c(C(C)C)c3c(=O)[nH]2)cc1C | 0.22 | 0.16 | 0.16 | 0.27 | – | – | 0.19 | 0.07 | 0.09 | – | – | 0.98 | – | 0.86 | 0.59 | 0.74 | 0.31 | 0.61 | -1 | – | Growth Rate (Fibroblast; 6 h, replicate number 2): 0.39; Growth Rate (Fibroblast; 12 h, replicate number 2): 0.19; Growth Rate (Fibroblast; 18 h, replicate number 2): 0.26; Growth Rate (HEK-293T; 12 h, replicate number 1): 0.66; Growth Rate (HEK-293T; 18 h, replicate number 2): 0.21; Growth Rate (U2OS; 12 h, replicate number 1): 0.9
COC(=O)c1ccc2c(c1)NC(=O)/C2=C(\Nc1ccc(N(C)C(=O)CN2CCN(C)CC2)cc1)c1ccccc1 [NINTEDANIB] | – | – | 0.4 | – | – | – | – | – | – | 0.64 | 0.08 | -0.05 | – | – | 0.97 | – | – | 0.99 | 0.43 | -0.14 | Growth Rate (HEK-293T; 6 h, replicate number 1): -0.42; Growth Rate (HEK-293T; 12 h, replicate number 1): 0.57
COc1cc(C(N)=O)ccc1Nc1ncc2c(n1)N(CCC(C)C)[C@H](C)C(=O)N2C | – | – | – | 0.77 | -0.98 | -1 | – | 0.53 | – | -1 | – | – | 0.39 | 0.18 | 0.37 | 0.4 | -0.55 | 0.27 | -0.99 | -0.68 | Growth Rate (U2OS; 12 h, replicate number 1): -0.71
CCCCC(C)(O)C/C=C/[C@H]1[C@H](O)CC(=O)[C@@H]1CCCCCCC(=O)O (stereo partly specified) [MISOPROSTOL ACID] | 0.98 | 0.86 | – | 0.97 | -0.42 | -0.77 | – | – | – | – | 0.49 | – | – | 0.94 | – | – | – | – | -1 | -0.92 | –
CN1CCc2cc(Nc3ncc(C(F)(F)F)c(NCc4cc[nH]n4)n3)ccc2C1 | – | – | – | – | -0.94 | – | 0.42 | 0.29 | 0.14 | – | – | – | 0.87 | 0.56 | 0.84 | 0.37 | 0.58 | 0.22 | -0.24 | -0.64 | Growth Rate (HEK-293T; 12 h, replicate number 2): 0.73; Growth Rate (HEK-293T; 18 h, replicate number 2): 0.47
Cc1nnc2n1-c1sc(CCC(=O)N3CCOCC3)cc1C(c1ccccc1Cl)=NC2 [APAFANT] | – | 0.73 | 0.8 | – | – | -0.56 | – | – | – | 0.87 | – | 0.58 | 0.99 | 0.76 | 0.88 | – | 0.88 | 0.98 | – | -0.81 | Growth Rate (HEK-293T; 12 h, replicate number 1): 0.78; Growth Rate (U2OS; 12 h, replicate number 1): 0.67
